Here are results for 2 molecules from patent publication US20150368616A1, “METHODS FOR INDUCTION OF CELL FATES FROM PLURIPOTENT CELLS” (THE CLEVELAND CLINIC FOUNDATION, priority 2013, published 2015).

Assay [1] deals with mouse WT pancreatic explants (E12.5). The assay can be described thus: Mouse WT pancreatic explants (E12.5) cultured 4 days with DAPT; staining and qRT-PCR. The settings on record: for ductal cell development: 4 days. Format: cell-based. As to the method: […] Sections were stained against Mucin1, carboxypeptidase1 (CPA) and glucagon (Glu). C. qRT-PCR analysis of explants performed as in A, B. Pancreatic marker genes were assessed and fold-changes to WT explants treated with DMSO were calculated by DDct method, using GAPDH mRNA as internal standard.
Given that pancreatic ductal cells form in Ngn3 null mice, and because ductal genes have not been identified as direct Ngn3 targets, we set forth to determine if the cell-extrinsic mechanism involving Notch indeed was causal for the Ngn3 Delayed ON phenotype. We first tested if pancreatic ductal cell differentiation was dependent on Notch. We cultured WT pancreatic explants in the presence of DAPT (FIG. 35A, B, C). These experiments were based on E12.5 pancreas, as at that age, the majority of tip/trunk patterning has occurred, and cells are actively undergoing terminal fate decisions. These cultures developed significant numbers of Muc1+ ductal cells during culture in absence of DAPT (FIG. 35A), with a density exceeding that found in-vivo. Acinar cell development (CPA1+) proceeded in WT (FIG. 35A), albeit at a much reduced level compared to normal development. […] Given that Notch processing inhibition strongly affected cellular differentiation, we investigated this further by performing qRT-PCR on similar-type explants (FIG. 35C).

For another assay, the system named is Ngn3 protein. The experiment in a line: Ngn3 protein stability and half-life in HepG2 cells, cycloheximide time course, Western blot. The assay is classed as cell-based. An excerpt:
I. Protein stability and half-life assessment of Ngn3 in HepG2 cells. HepG2 cells were transfected with pTRE2-Ngn3 and pCMV-rtTA, treated with Doxycycline for 24 hr, and on the subsequent day pre-exposed to the proteasomal inhibitor MG132 for 5 hr. At time t=0, protein synthesis was inhibited by cycloheximide (CHX). Western blot using anti-Ngn3 antibodies are shown; b-actin served as a control, and remains stable. MG132 treatment leads to Ngn3 protein accumulation at t=0, and strongly stabilizes the protein, which rapidly decays in non-treated cells. J. Experiment conducted similarly as in I, but CMV-driven versions of Notch1 and Notch2 intracellular domains (N1ICD, N2ICD respectively) (left), or dominant-negative mastermind-like1 (DN-MAML1) were co-transfected with pTRE2-Ngn3. The left-most blot is overexposed to reveal the lower level of accumulated Ngn3 protein in presence of N1ICD, N2ICD, and the loss of Ngn3 upon CHX treatment. The analysis was done 1 hr post CHX treatment. […] K. Mouse pancreatic E14.5 explants were subjected to short-term treatment of CHX (1 hr) and MG132 (5 hr pre, and post-culture) as indicated. Total protein was isolated and subjected to anti-Ngn3 Western blotting. Levels of Ngn3 increase in presence of MG132, and decrease in response to CHX. Ngn3 protein levels increase correspondingly in presence of DAPT, a condition where the protein remains stable (CHX+DAPT lane). L. Stability measurements of Ngn3 in the presence of various cellular regulatory proteins. The experiment was conducted as in I and J. Decay scans (right) provide a measure of the decay rate of Ngn3. In all cases, the t=0 Ngn3 levels prior to CHX treatment is paralleled by the relative half-life of the protein. Destabilizing conditions include N1ICD, N2ICD, and Hes1. Stabilizing conditions include DN-MAML1 and DAPT-treatment. […] Hes1 is able to destabilize Ngn3 in the presence of DN-MAML1.
While Hes1 is known to directly repress Ngn3 expression, this would be an insufficient explanation for the observed results in which Ngn3 was driven by a Pdx1-tTA;tetO governed system. […] As destabilization of other bHLH factors, including NGN, and hASH1 has been observed, which has also implicated Notch, we then tested if a similar mechanism might operate in pancreas. As a means to mechanistically address this question, we first determined if Ngn3 protein half-life was regulated by proteasomal activity. Using three different heterologous cell lines (HepG2, Hek293, and CHO) conditionally expressing Ngn3, we observed a rapid turnover of Ngn3 protein after cycloheximide (CHX) addition; conditions where the control protein, beta-Actin, remained stable (FIG. 34I and data not shown). […]

Assay [2] relates to E12.5 Ngn3 Delayed ON pancreas. The experiment in a line: Ngn3 Delayed ON pancreas (E12.5) explant culture 4 days with and without DAPT, immunofluorescence. Format: cell-based, mouse. The settings on record: four days ex-vivo. From the text: D-K. Ngn3 Delayed ON pancreas (E12.5, doxycycline was provided at E7.5, E9.5 as in FIG. 2A) was isolated and subjected to 4 days of explant culture with and without DAPT as described in A,B. Immunofluorescence analyses of explant pancreas using select pancreatic markers, after 4 days in culture. D′: insert image showing the expression of glucagon.
Given that Dll1 and Hes1 were >2-fold increased in the E12.5 Ngn3 Delayed ON pancreas, we next asked to what degree Notch processing was also required for the enhanced Ngn3-mediated ductal cell formation in that model. Similar to above, microdissected E12.5 Ngn3 Delayed ON pancreas was cultured for four days ex-vivo with and without DAPT (FIG. 36D-K). In contrast to WT explants, Ngn3 Delayed ON pancreas developed in a quite similar manner as observed in-vivo; in addition to widespread ductal formation, glucagon-producing clusters were observed, and extremely few acinar cells were found (FIG. 36D, F, H). Similar results were obtained using staining for Hnf1β (data not shown). […] The Ngn3-mediated ductal cell formation was abrogated by DAPT treatment ([…]). […] We conclude that Notch signaling is required for both normal, as well as Ngn3-mediated, pancreatic ductal cell development, and that blocking this pathway promotes acinar and endocrine fates at the expense of ductal cells. Of note, at high levels of DAPT treatment, γ-secretase inhibition impacts endocrine subtype determination as well, and if a concomitant increase in Ngn3 protein is provided, the organ regains capacity for significant insulin-cell differentiation.

For `C[C@H](NC(=O)Cc1cc(F)cc(F)c1)C(=O)N[C@H](C(=O)OC(C)(C)C)c1ccccc1` [DAPT, N—[N-(3,5-Diflurophenacetyl-L-alanyl)]-S-phenylglycine t-Butyl Ester], in assay [1] (100 μM DAPT), the ductal cell development result is “fully abolished”. In addition, in assay [1] (100 μM DAPT, qRT-PCR), the Gcg expression entry is recorded as “reduced” and the “Ins1, Ins2 expression” value is listed as “further enhanced”. Further, the ductal cell development entry in assay [1] (25-50 μM DAPT) is “significantly reduced”. In addition, in assay [1] (qRT-PCR), the “Ngn3, NeuroD1, Nkx6.1 expression” value is “dose-dependent increases”; the Sox9 expression entry is listed as “Sox9 expression was reduced”; the “acinar gene expression (Cpa1, Cpa2, Ptf1a)” value is reported as “strongly promoted”. For the same molecule, in the assay with Ngn3 protein (HepG2 cells, DAPT at 50 μM), the “total Ngn3 protein levels and stability” value is “increase in total Ngn3 protein levels”. In assay [2], the “Ngn3-mediated ductal cell formation” value is “abrogated”, the “Pdx1+/Ins+ endocrine cells” value is given as “numerous”, the “acinar density (CPA1+ cells)” value is listed as “much increased” and the glucagon-expressing cells result is listed as “correspondingly reduced”.

B1: Ngn3: pro-endocrine bHLH factor, 214 amino acids (protein, UniProt Q9Y4Z2 1-214, looked up)
chain: MTPQPSGAPTVQVTRETERSFPRASEDEVTCPTSAPPSPTRTRGNCAEAEEGGCRGAPRKLRARRGGRSRPKSELALSKQRRSRRKKANDRERNRMHNLNSALDALRGVLPTFPDDAKLTKIETLRFAHNYIWALTQTLRIADHSLYALEPPAPHCGELGSPGGSPGDWGSLYSPVSQAGSLSPAASLEERPGLLGATFSACLSPGSLAFSDFL
modifications: full-length
notes: pro-endocrine bHLH factor, 214 amino acids
With B1, the “half-life of Ngn3 (T1/2)” value with Ngn3 protein (HepG2 cells co-expressing N1ICD or N2ICD) is < 15 ′; in the assay on Ngn3 protein (HepG2 cells, CHX time course, non-treated), ~30 ′.
